SMILES strings stand for the structures. pIC50: −log10 of the molar value.

The subject of experiment [1] is BaF3 cells expressing wildtype EGFR. The experiment can be described thus: Antiproliferative activity (MTT) against control BaF3 cells expressing wildtype EGFR. As to conditions: Mus musculus, BAF3 PARENTAL cells (control). The format is cell-based. The gist of the method:
(§1)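 Viability by MTT colorimetry. Cells: BaF3 transfected with mutant EGFR, plus a wildtype-EGFR BaF3 counter-screen.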

The target in another experiment is EGFR L858R/T790M (Homo sapiens, UniProt P00533, L858R/T790M). Description: Kinase inhibitory activity against EGFR bearing the L858R/T790M double mutation. As to conditions: EGFR L858R/T790M double mutation; 10 μM ATP; read-out: IC50 for kinase inhibition, EGFR L858R T790M. It counts as biochemical. In short, it runs like this:
(§2)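 Compounds were titrated over ten points starting at 3 μM, each point in singlicate, and kinase activity was measured in the presence of 10 μM ATP.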

The next experiment concerns the target EGFR L858R (Homo sapiens, UniProt P00533, L858R). Description: Kinase inhibitory activity against EGFR bearing the L858R mutation. It counts as biochemical. As to conditions: EGFR L858R; 10 μM ATP; read-out: IC50 for kinase inhibition, EGFR L858R. The gist of the method: as §2
Experiment [2] concerns the target human EGFR (native sequence) (Homo sapiens, UniProt P00533). Description: Kinase inhibitory activity against human EGFR (native sequence). Conditions: human EGFR native sequence; 10 μM ATP; read-out: IC50 for kinase inhibition, EGFR. It counts as biochemical. In short, it runs like this: as §2
Experiment [3] concerns the target T1, BaF3 cells expressing the target EGFR mutations (Homo sapiens, UniProt P00533, T790M, cells depend on it, form not given).
T1 construct: IC50, BAF3 EGFR DEL T790M PURO POOL; other: BAF3 EGFR DEL T790M PURO POOL cells, MTT; other: BAF3 EGFR DEL T790M PURO POOL cells; MTT
Description: Antiproliferative activity (MTT) against BaF3 cells expressing the target EGFR mutations. The format is cell-based. Conditions: BAF3 EGFR DEL T790M PURO POOL cells, read-out: IC50, BAF3 EGFR DEL T790M PURO POOL. The gist of the method:
as §1

Experiment [4] has as its target T2, BaF3 cells expressing the target EGFR mutations (Homo sapiens, UniProt P00533, T790M/L858R, cells depend on it).
T2 construct: IC50, BAF3 EGFR L858R-T790M PURO POOL; other: BAF3 EGFR L858R-T790M PURO POOL cells, MTT; IC50, BAF3 EGFR L858R-T790M PURO POOL; other: BAF3 EGFR L858R-T790M PURO POOL cells; MTT
Described as above. The format is cell-based. As to conditions: BAF3 EGFR L858R-T790M PURO POOL cells, read-out: IC50, BAF3 EGFR L858R-T790M PURO POOL. In short, it runs like this:
as §1

T1 sequence (P00533 with tags, fused parts or gaps DEL746-750/T790M, form open): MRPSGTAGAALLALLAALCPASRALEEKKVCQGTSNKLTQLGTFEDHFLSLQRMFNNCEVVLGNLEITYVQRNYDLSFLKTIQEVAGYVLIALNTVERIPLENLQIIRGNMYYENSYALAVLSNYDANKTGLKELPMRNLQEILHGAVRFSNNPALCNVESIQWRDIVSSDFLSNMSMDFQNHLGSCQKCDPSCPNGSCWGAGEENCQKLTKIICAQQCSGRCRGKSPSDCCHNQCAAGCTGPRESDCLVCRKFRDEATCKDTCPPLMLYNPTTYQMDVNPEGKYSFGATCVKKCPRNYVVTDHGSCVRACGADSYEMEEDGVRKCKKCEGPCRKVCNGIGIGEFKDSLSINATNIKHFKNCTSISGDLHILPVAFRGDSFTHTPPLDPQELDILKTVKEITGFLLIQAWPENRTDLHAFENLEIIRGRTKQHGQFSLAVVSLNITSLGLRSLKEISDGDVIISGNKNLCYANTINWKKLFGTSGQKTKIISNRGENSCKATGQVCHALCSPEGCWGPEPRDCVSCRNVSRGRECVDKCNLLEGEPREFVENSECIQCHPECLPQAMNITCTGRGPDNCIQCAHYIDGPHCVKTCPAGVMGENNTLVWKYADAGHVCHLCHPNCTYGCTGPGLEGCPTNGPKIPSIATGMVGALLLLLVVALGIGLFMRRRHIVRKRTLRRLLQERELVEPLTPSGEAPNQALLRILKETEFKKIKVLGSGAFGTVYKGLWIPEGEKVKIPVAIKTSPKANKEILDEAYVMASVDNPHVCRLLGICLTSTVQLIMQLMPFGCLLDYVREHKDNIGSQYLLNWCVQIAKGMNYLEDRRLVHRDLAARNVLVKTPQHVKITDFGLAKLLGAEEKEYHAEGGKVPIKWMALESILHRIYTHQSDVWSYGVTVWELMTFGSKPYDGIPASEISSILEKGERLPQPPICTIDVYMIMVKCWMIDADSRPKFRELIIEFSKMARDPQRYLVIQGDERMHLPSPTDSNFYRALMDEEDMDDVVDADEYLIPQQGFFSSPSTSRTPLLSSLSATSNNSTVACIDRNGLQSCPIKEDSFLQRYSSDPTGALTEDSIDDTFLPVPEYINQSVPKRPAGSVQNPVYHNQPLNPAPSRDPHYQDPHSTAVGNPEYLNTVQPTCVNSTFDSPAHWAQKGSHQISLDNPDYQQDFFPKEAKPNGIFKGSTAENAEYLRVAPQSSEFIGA
Chain of EGFR L858R/T790M (P00533 25-1210 T790M/L858R): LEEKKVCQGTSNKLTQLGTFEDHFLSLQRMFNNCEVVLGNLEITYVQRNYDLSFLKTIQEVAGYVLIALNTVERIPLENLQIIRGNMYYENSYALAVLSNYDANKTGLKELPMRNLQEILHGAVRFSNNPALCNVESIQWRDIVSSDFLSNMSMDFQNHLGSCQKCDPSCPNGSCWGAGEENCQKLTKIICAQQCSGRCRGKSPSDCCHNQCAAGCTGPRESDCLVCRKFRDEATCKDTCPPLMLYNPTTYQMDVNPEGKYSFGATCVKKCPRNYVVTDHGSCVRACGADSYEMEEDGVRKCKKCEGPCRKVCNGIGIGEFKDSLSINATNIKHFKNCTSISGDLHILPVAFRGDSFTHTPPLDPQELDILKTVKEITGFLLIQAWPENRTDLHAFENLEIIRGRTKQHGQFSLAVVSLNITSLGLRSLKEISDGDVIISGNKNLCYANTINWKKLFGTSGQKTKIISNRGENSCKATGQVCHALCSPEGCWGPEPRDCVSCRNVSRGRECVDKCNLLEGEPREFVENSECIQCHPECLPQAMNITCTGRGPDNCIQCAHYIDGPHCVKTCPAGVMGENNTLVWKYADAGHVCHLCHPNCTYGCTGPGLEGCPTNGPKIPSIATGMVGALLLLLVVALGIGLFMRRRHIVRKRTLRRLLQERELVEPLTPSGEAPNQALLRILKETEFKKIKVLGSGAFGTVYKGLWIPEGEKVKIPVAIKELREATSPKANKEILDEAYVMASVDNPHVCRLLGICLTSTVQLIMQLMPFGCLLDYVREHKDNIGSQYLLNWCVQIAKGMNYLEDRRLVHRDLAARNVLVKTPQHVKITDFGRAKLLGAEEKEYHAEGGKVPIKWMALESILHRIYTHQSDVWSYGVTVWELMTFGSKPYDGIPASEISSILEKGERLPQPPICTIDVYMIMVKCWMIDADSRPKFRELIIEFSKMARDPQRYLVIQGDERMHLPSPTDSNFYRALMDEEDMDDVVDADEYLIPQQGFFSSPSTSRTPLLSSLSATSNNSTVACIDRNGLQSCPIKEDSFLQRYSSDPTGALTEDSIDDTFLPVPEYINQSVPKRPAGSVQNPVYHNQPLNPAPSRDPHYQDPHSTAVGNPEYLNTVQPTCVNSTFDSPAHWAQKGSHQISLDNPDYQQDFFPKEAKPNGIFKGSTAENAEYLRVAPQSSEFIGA
T2 sequence (P00533 whole entry T790M/L858R): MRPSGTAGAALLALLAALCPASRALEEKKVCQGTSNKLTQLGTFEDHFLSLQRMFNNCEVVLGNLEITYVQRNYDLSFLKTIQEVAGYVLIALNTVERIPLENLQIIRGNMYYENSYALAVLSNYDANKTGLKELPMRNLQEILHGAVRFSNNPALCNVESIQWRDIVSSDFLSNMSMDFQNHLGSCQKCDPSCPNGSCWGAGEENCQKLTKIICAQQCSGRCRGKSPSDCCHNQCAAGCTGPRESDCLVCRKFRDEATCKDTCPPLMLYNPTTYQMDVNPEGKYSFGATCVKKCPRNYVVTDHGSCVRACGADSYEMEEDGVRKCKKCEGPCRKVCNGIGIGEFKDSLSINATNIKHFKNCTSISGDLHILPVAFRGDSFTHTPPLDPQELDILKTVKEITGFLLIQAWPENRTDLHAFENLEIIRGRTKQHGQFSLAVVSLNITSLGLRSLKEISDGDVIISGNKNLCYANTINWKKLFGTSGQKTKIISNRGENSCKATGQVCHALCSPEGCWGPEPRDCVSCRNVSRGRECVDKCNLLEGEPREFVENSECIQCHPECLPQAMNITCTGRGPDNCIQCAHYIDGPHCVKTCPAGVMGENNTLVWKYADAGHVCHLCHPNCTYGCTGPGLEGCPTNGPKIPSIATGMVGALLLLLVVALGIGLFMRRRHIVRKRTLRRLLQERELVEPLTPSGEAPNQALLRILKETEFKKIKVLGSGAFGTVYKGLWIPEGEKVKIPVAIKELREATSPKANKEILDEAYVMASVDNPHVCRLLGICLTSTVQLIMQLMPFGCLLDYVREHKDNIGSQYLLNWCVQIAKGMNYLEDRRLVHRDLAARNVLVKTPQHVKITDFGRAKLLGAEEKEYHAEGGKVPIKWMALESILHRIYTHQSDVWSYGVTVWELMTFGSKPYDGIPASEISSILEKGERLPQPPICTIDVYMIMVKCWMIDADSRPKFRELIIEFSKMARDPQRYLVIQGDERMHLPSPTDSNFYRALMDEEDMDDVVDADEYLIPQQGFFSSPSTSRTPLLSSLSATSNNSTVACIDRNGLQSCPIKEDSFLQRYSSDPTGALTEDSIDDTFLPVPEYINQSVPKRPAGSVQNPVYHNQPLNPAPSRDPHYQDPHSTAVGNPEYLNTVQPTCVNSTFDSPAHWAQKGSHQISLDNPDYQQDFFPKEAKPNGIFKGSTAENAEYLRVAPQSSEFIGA
Chain of human EGFR (native sequence) (P00533 25-1210): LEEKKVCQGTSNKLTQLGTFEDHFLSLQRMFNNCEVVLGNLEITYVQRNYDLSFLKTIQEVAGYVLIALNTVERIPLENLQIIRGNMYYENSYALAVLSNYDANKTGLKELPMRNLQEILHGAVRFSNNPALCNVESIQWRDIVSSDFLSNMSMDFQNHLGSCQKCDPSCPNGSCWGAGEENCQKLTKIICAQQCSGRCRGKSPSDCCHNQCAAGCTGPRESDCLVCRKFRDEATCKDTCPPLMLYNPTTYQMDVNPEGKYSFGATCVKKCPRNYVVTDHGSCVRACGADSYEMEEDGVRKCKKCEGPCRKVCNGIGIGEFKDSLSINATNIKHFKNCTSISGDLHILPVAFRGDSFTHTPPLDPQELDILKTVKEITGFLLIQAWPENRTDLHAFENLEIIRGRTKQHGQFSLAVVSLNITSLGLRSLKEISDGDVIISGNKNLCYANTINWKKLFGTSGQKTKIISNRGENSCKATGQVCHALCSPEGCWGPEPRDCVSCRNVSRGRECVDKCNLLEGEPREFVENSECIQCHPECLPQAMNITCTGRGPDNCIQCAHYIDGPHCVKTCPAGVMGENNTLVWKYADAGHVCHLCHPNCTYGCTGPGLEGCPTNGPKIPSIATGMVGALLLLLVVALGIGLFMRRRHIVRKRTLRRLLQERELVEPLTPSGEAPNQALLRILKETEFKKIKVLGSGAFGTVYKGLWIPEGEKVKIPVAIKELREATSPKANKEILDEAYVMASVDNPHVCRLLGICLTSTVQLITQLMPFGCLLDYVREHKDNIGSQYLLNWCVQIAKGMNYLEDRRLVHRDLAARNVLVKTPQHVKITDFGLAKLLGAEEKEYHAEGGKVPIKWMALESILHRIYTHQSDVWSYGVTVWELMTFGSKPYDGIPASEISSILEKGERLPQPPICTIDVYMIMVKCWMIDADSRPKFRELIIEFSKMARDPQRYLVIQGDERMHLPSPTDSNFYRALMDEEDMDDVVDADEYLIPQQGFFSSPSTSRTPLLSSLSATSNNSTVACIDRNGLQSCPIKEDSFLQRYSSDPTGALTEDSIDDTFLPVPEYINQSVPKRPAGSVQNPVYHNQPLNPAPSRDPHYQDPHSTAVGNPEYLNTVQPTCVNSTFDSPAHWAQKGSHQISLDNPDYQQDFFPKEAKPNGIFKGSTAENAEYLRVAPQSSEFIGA

For `C=CC(=O)Nc1cc(Nc2ncc(Cl)c(Nc3ccccc3P(C)(C)=O)n2)c(OC)cc1C#CC1(N(C)C)CC1` [Example 73, N-(5-((5-chloro-4-((2-(dimethylphosphoryl)phenyl)amino)pyrimidin-2-yl)amino)-2-((1-(dimethylamino)cyclopropyl)ethynyl)-4-methoxyphenyl)acrylamide], the pIC50 in experiment [1] is not above 6.60; on EGFR L858R/T790M, more than 7.30; on EGFR L858R it was more than 7.30; in experiment [2], not above 6.60. Further, the GI50 in experiment [3] and in experiment [4] was 101 to 250 nM in each case.
Regarding `C=CC(=O)Nc1cc(Nc2ncc(Cl)c(Nc3ccccc3P(C)(C)=O)n2)c(OC)cc1CCN1CCN(C)CC1` [Example 74, N-(5-((5-chloro-4-((2-(dimethylphosphoryl)phenyl)amino)pyrimidin-2-yl)amino)-4-methoxy-2-(2-(4-methylpiperazin-1-yl)ethyl)phenyl)acrylamide], the negative logarithm of the IC50 (pIC50) is not above 6.60 in experiment [1], more than 7.30 at EGFR L858R/T790M, more than 7.30 at EGFR L858R and more than 7.30 in experiment [2]. The GI50 in experiment [3] is 101 to 250 nM; in experiment [4], not below 250 nM.
With `CCOC(=O)/C=C/C(=O)Nc1ccc(OC)c(Nc2ncc(Cl)c(Nc3ccccc3P(C)(C)=O)n2)c1` [Example 75, (E)-ethyl 4-((3-((5-chloro-4-((2-(dimethylphosphoryl)phenyl)amino)pyrimidin-2-yl)amino)-4-methoxyphenyl)amino)-4-oxobut-2-enoate], the negative-log IC50 (pIC50) was not above 6.60 in experiment [1], more than 7.30 on EGFR L858R/T790M, more than 7.30 on EGFR L858R and more than 7.30 in experiment [2]. Besides, the GI50 in experiment [3] and in experiment [4] was less than 50 nM throughout.
On to `COc1ccc(NC(=O)/C=C/C2(NC(=O)OC(C)(C)C)CC2)cc1Nc1ncc(Cl)c(Nc2ccccc2P(C)(C)=O)n1` [Example 76, (E)-tert-butyl (1-(3-((3-((5-chloro-4-((2-(dimethylphosphoryl)phenyl)amino)pyrimidin-2-yl)amino)-4-methoxyphenyl)amino)-3-oxoprop-1-en-1-yl)cyclopropyl)carbamate], for which the pIC50 (in experiment [1]; at EGFR L858R/T790M; at EGFR L858R; in experiment [2]) was not above 6.60 throughout. The GI50 in experiment [3] and in experiment [4] was not below 250 nM in each case.
Consider `C=C(F)C(=O)Nc1ccc(OC)c(Nc2ncc(Cl)c(Nc3ccccc3P(C)(C)=O)n2)c1` [Example 77, N-(3-((5-chloro-4-((2-(dimethylphosphoryl)phenyl)amino)pyrimidin-2-yl)amino)-4-methoxyphenyl)-2-fluoroacrylamide], for which the pIC50 in experiment [1] is not above 6.60; at EGFR L858R/T790M it was 7.00 to 7.30; on EGFR L858R, more than 7.30; in experiment [2] it was not above 6.60. Also, the GI50 was less than 50 nM in experiment [3] and 50 to 100 nM in experiment [4].
Consider `COc1ccc(NC(=O)/C=C/Cl)cc1Nc1ncc(Cl)c(Nc2ccccc2P(C)(C)=O)n1` [Example 78, (E)-3-chloro-N-(3-((5-chloro-4-((2-(dimethylphosphoryl)phenyl)amino)pyrimidin-2-yl)amino)-4-methoxyphenyl)acrylamide], for which the pIC50 in experiment [1] is not above 6.60; on EGFR L858R/T790M it was more than 7.30; at EGFR L858R it was more than 7.30; in experiment [2] it was more than 7.30. Further, the GI50 in experiment [3] and in experiment [4] was less than 50 nM throughout.
For the compound `COc1ccc(NC(=O)C2=CCCCC2)cc1Nc1ncc(Cl)c(Nc2ccccc2P(C)(C)=O)n1` [Example 79, N-(3-((5-chloro-4-((2-(dimethylphosphoryl)phenyl)amino)pyrimidin-2-yl)amino)-4-methoxyphenyl)cyclohex-1-enecarboxamide], the pIC50 (in experiment [1]; at EGFR L858R/T790M; at EGFR L858R; in experiment [2]) was not above 6.60 throughout. The GI50 in experiment [3] and in experiment [4] was not below 250 nM each time.
On to `CC#CC(=O)Nc1cc(Nc2ncc(Cl)c(Nc3ccccc3P(C)(C)=O)n2)c(OC)cc1OCCN1CCCC1` [Example 80, N-(5-((5-chloro-4-((2-(dimethylphosphoryl)phenyl)amino)pyrimidin-2-yl)amino)-4-methoxy-2-(2-(pyrrolidin-1-yl)ethoxy)phenyl)but-2-ynamide], for which the pIC50 was not above 6.60 in experiment [1], more than 7.30 at EGFR L858R/T790M, more than 7.30 on EGFR L858R and not above 6.60 in experiment [2]. In addition, the GI50 was less than 50 nM in experiment [3] and 101 to 250 nM in experiment [4].
`COc1ccc(NC(=O)C#CCN(C)C)cc1Nc1ncc(Cl)c(Nc2ccccc2P(C)(C)=O)n1` [Example 81, N-(3-((5-chloro-4-((2-(dimethylphosphoryl)phenyl)amino)pyrimidin-2-yl)amino)-4-methoxyphenyl)-4-(dimethylamino)but-2-ynamide]: the pIC50 in experiment [1] was not above 6.60; on EGFR L858R/T790M it was more than 7.30; on EGFR L858R, more than 7.30; in experiment [2], more than 7.30. Besides, the GI50 in experiment [3] and in experiment [4] was less than 50 nM each time.
For `C=C(C(=O)Nc1ccc(OC)c(Nc2ncc(Cl)c(Nc3ccccc3P(C)(C)=O)n2)c1)C(F)(F)F` [Example 82, N-(3-((5-chloro-4-((2-(dimethylphosphoryl)phenyl)amino)pyrimidin-2-yl)amino)-4-methoxyphenyl)-2-(trifluoromethyl)acrylamide], the pIC50 in experiment [1] is not above 6.60; at EGFR L858R/T790M, more than 7.30; at EGFR L858R, more than 7.30; in experiment [2], more than 7.30. Besides, the GI50 in experiment [3] and in experiment [4] was not below 250 nM each time.
For the compound `COc1cc(P(C)(C)=O)ccc1Nc1ncc(Cl)c(Oc2cccc(NC(=O)C#CCN(C)C)c2)n1` [Example 83, N-(3-((5-chloro-2-((4-(dimethylphosphoryl)-2-methoxyphenyl)amino)pyrimidin-4-yl)oxy)phenyl)-4-(dimethylamino)but-2-ynamide], the pIC50 in experiment [1] was not above 6.60; on EGFR L858R/T790M it was more than 7.30; at EGFR L858R, more than 7.30; in experiment [2], more than 7.30. For the same compound, the values for the GI50 in experiment [3] and in experiment [4] were 101 to 250 nM and not below 250 nM, respectively.
For the compound `COc1ccc(NC(=O)C2=CCCN(C)C2)cc1Nc1ncc(Cl)c(Nc2ccccc2P(C)(C)=O)n1` [Example 84, N-(3-((5-chloro-4-((2-(dimethylphosphoryl)phenyl)amino)pyrimidin-2-yl)amino)-4-methoxyphenyl)-1-methyl-1,2,5,6-tetrahydropyridine-3-carboxamide], the pIC50 is not above 6.60 in experiment [1], more than 7.30 at EGFR L858R/T790M, more than 7.30 on EGFR L858R and not above 6.60 in experiment [2]. Further, the GI50 in experiment [3] and in experiment [4] was not below 250 nM in each case.
As for `COc1cc(F)c(NC(=O)/C=C/Cl)cc1Nc1ncc(Cl)c(Nc2ccccc2P(C)(C)=O)n1` [Example 85, (E)-3-chloro-N-(5-((5-chloro-4-((2-(dimethylphosphoryl)phenyl)amino)pyrimidin-2-yl)amino)-2-fluoro-4-methoxyphenyl)acrylamide], the pIC50 is not above 6.60 in experiment [1], more than 7.30 at EGFR L858R/T790M, more than 7.30 on EGFR L858R and more than 7.30 in experiment [2]. For the same compound, the GI50 in experiment [3] and in experiment [4] was less than 50 nM in each case.
As for `C=CC(=O)Nc1ccc(OC)c(Nc2ncc(Cl)c(Nc3ccc(OCCOC)cc3P(C)(C)=O)n2)c1` [Example 86, N-(3-((5-chloro-4-((2-(dimethylphosphoryl)-4-(2-methoxyethoxy)phenyl)amino)pyrimidin-2-yl)amino)-4-methoxyphenyl)acrylamide], the negative-log IC50 (pIC50) in experiment [1] was not above 6.60; on EGFR L858R/T790M, more than 7.30; at EGFR L858R, more than 7.30; in experiment [2], 7.00 to 7.30. For the same compound, the GI50 in experiment [3] is less than 50 nM; in experiment [4], 50 to 100 nM.
As to `COc1cc(F)c(NC(=O)C#CCN(C)C)cc1Nc1ncc(Cl)c(Nc2ccccc2P(C)(C)=O)n1` [Example 87, N-(5-((5-chloro-4-((2-(dimethylphosphoryl)phenyl)amino)pyrimidin-2-yl)amino)-2-fluoro-4-methoxyphenyl)-4-(dimethylamino)but-2-ynamide], the negative-log IC50 (pIC50) in experiment [1] was 6.60 to 7.00; on EGFR L858R/T790M, more than 7.30; on EGFR L858R it was more than 7.30; in experiment [2], more than 7.30. The GI50 in experiment [3] and in experiment [4] was less than 50 nM in each case.

The values above are taken from US9834571B2, “Compounds for inhibiting cell proliferation in EGFR-driven cancers” (ARIAD Pharmaceuticals, Inc., priority 2012, dated 2017).
